These results are taken from patent US20240226072A1 (Stichting Het Nederlands Kanker Instituut, priority 2022, published 2024).

The structures appear in SMILES notation.

Data set [1] can be described thus: Plasma pharmacokinetics and tissue distribution 2 h after oral cabazitaxel 10 mg/kg with vehicle or 25 mg/kg ritonavir in wild-type, Oatp1a/1b−/−, Oatp1a/1b/2b1−/−, OATP1B1- and OATP1B3-transgenic mice. The class given is in vivo. The settings on record: for reduction of SIC recovered percentage of dose corrected for the plasma AUC: vehicle + oral cabazitaxel 10 mg/kg, 2 h; for Cmax / Tmax / AUC(0-t): male, FVB, mouse, plasma, po, 10 mg/kg, vehicle pretreatment, oral 10 mg/kg cabazitaxel; for AUC(0-t): 0-2 h, read-out: AUC0-2 h. As for the experimental part:
All animals were fasted 2 to 3 hours prior to the start of the experiment to minimize variation in absorption after oral administration. […] Subsequently, cardiac puncture was performed with a heparinized needle and syringe collecting a final blood sample. […] All samples were stored at −30° C. until analysis.
Differences were considered statistically significant when P<0.05. All data are presented as geometric mean±SD.

For data set [2] the following is noted: chemically castrated men compared to non-castrated patients; cited from earlier work.
For data set [3] the following is noted: Oatp1a/b−/− compared to wild-type mice after intravenous administration; Iusuf et al.; cited from earlier work.
A further data set can be described thus: in vivo. The conditions noted are these: male, mouse, po, 10 mg/kg; for AUC(0-t): AUC0-24 h. As for the experimental part: The Jevtana (10 mg/mL) solution contains 0.26 mg/mL polysorbate 80 and 15% (w/v) ethanol, and is adjusted to pH 2-6 with citric acid. […] The stock solution was further diluted 5-fold with water to reach a 2.5 mg/mL dosing solution for oral administration. The vehicle solution only consists of polysorbate 80, ethanol and water (1:1:8, v/v/v). […] All dosing solutions were prepared freshly on the day of the experiment.
At the termination time point of 24 hours, mice were anesthetized using an isoflurane evaporator with 3% isoflurane with 0.8 L/min air and 0.3 L/min oxygen. A final blood sample was taken using cardiac puncture, using Eppendorf tubes previously prepared with heparin as an anticoagulant. Subsequently, the anesthetized mice were sacrificed by cervical dislocation and the tissues of interest were collected. Brain, liver, spleen, kidney, small intestine, and testis were collected. The small intestinal content (SIC) was separately collected by removing this from the small intestinal tissue, which was subsequently rinsed with saline to remove possibly fecal residue. The blood samples were centrifuged at 9,000×g for 6 minutes at 4° C., and the plasma fraction was isolated and stored at −30° C. until analysis. Brain, liver, spleen, kidney, small intestinal tissue, SIC, and testis were homogenized in a FastPrep-24™ 5G homogenizer (M. P. Biomedicals, Santa Ana, CA, USA) for 1 min with 1, 3, 1, 2, 3, 2, and 1 mL of 2% (w/v) BSA in Milli-Q water, respectively. Until analysis of the samples, they were all stored at −30° C.
Pharmacokinetic parameters were estimated by non-compartmental analysis using the software package of PK solutions 2.0.2 (SUMMIT, Research Service). The area under the curve (AUC) of the plasma-concentration time curve for all the compounds was calculated using the linear trapezoidal rule without extrapolating to infinity. The peak plasma concentration (Cmax) and the time to reach peak plasma concentration (Tmax) were obtained directly from the individual raw data. For the statistical analysis and the graphs GraphPad Prism 9 (GraphPad Software Inc., La Jolla, CA, USA) was used. The statistics for the comparison of multiple groups were calculated with the one-way analysis of variance (ANOVA), whereas Sidak's post hoc correction was performed. Log-transformation before statistical analysis was applied, when variances within the groups were not homogeneously distributed. Differences were considered statistically significant when P<0.05. All data are presented as geometric mean±SD.

[4] abbreviates: Cyp3aXAV (human CYP3A in Cyp3a−/−, FVB background).

Regarding `CC(=O)O[C@@]12CO[C@@H]1C[C@H](O)[C@@]1(C)C(=O)[C@H](O)C3=C(C)[C@@H](OC(=O)[C@H](O)[C@@H](NC(=O)OC(C)(C)C)c4ccccc4)C[C@@](O)([C@@H](OC(=O)c4ccccc4)[C@H]21)C3(C)C` [docetaxel], the entries for the “reduction of SIC recovered percentage of dose corrected for the plasma AUC” value in data set [1] (Oatp1a/1b/2b1−/− compared to wild-type mice) and in data set [1] (Oatp1a/1b−/− compared to wild-type mice) were 2.9 fold and 4.0 fold, respectively. Moreover, the Cmax worked out at 206 ± 105 nM in data set [1] (OATP1B1-transgenic mice); 248 ± 145 nM in data set [1] (OATP1B3-transgenic mice); 202 ± 65 nM in data set [1] (Oatp1a/1b/2b1−/− mice); 191 ± 43 nM in data set [1] (Oatp1a/1b−/− mice); 84 ± 30 nM in data set [1] (wild-type mice); 119 nM in the data set “in vivo” (FVB, wild-type, Cmax). For the same compound, the Tmax was 35 min in data set [1] (OATP1B1-transgenic mice); 45 min in data set [1] (OATP1B3-transgenic mice); 35 min in data set [1] (Oatp1a/1b/2b1−/− mice); 35 min in data set [1] (Oatp1a/1b−/− mice); 25 min in data set [1] (wild-type mice). Further, the AUC(0-t) is 0.271 ± 0.144 µM·h in data set [1] (OATP1B1-transgenic mice); 0.305 ± 0.177 µM·h in data set [1] (OATP1B3-transgenic mice); 0.252 ± 0.069 µM·h in data set [1] (Oatp1a/1b/2b1−/− mice); 0.216 ± 0.047 µM·h in data set [1] (Oatp1a/1b−/− mice); 0.091 ± 0.043 µM·h in data set [1] (wild-type mice); 0.285 µM·h in the data set “in vivo” (setting [4]). For the same compound, the AUC(0-t) stood at 0.681 µM·h in “in vivo” (FVB, Cyp3aXAV) and 0.707 µM·h in “in vivo” (FVB, wild-type). Besides, the “reduction of plasma AUC” value in data set [2] is on record as 2 fold. The “increase in plasma AUC” value in data set [3] was 3 fold. The compound further returned an AUC0-24 h in “in vivo” (setting [4]) of 0.271 µM·h.
